The text below walks through data of patent US20050089573A1, “Oral pharmaceutical formulation containing ibandronate” (F. HOFFMANN-LA ROCHE, priority 1996, published 2005).

The data set is described as follows: clinical studies using ibandronate in rapidly releasing coated oral administration forms (tolerability). The data set is classed as in vivo, patients. The source says:
The film dissolving upon contact with digestive juice is preferably a coating which dissolves pH-independently. The adjuvant coating may be coated using methods common in pharmaceutical technology. […] This is particularly advantageous since the administration forms of the invention are also well-tolerated by patients lying in bed.

[1] abbreviates: administration forms coated with a film which quickly releases the active substance.

Consider `CCCCCN(C)CCC(O)(P(=O)(O)O)P(=O)(O)O` [ibandronate, 1-hydroxy-3-(N-methyl-N-pentyl)aminopropyl-1,1-diphosphonic acid], for which, under setting [1], the “irritations in the oesophagus when swallowing the tablets” value is given as “no irritations in the oesophagus” and the oesophagitis result is “does not occur”. The “cases of nausea, vomiting, pain or diarrhoea” value (patients treated with rapidly releasing administration forms, compared to what is otherwise observed when administering aminobisphosphonates) is recorded as “significantly less cases”. Further, for the setting “peroral forms coated with film that dissolves pH-independently, even at high dosages”, the “side effects observed in clinical studies” value is given as “no significant side effects”.
